{"source": "paper PMC11839852", "about": "“Preclinical comparison of (radio)lanthanides using mass spectrometry and nuclear imaging techniques: biodistribution of lanthanide-based tumor-targeting agents and lanthanides in ionic form” (European Journal of Nuclear Medicine and Molecular Imaging, 2024)", "system": "PC-3 PIP/flu tumor-bearing mice", "settings": "Ln-PSMA-617; for Tissue uptake: Blood / Tissue uptake: Bone / Tissue uptake: Heart / Tissue uptake: Intestines / Tissue uptake: Kidneys / Tissue uptake: Liver / Tissue uptake: Lung / Tissue uptake: Muscle / Tissue uptake: Salivary glands / Tissue uptake: Spleen / Tissue uptake: Stomach: PC-3 PIP/flu tumor-bearing mice; for Tissue uptake: PC-3 flu tumor: PSMA-negative xenograft; for Tissue uptake: PC-3 PIP tumor: PSMA-positive xenograft; for PC-3 PIP tumor-to-background organ ratios: Tumor-to-blood / PC-3 PIP tumor-to-background organ ratios: Tumor-to-liver: estimated ratios (organ <0.5% ID/g)", "note": "Like-named read-outs stand apart in the source and are kept apart here. Marks after values point to notes of the source that are not given here.", "data": [{"smiles": "O=C([O-])CN1CCN(CC(=O)[O-])CCN(CC(=O)NCC2CCC(C(=O)NC(Cc3ccc4ccccc4c3)C(=O)NCCCCC(NC(=O)NC(CCC(=O)O)C(=O)O)C(=O)O)CC2)CCN(CC(=O)[O-])CC1.[Tb+3]", "note": "(stereo not shown) [[^159Tb]Tb-PSMA-617]", "values": [{"measurement": "PC-3 PIP tumor-to-background organ ratios: Tumor-to-kidney", "setting": "1 h p.i.", "result": "3.3 ± 1.0"}, {"measurement": "Tissue uptake: Blood", "setting": "1 h p.i.", "result": "<0.5", "unit": "% ID/g"}, {"measurement": "Tissue uptake: Bone", "setting": "1 h p.i.", "result": "<0.5", "unit": "% ID/g"}, {"measurement": "Tissue uptake: Heart", "setting": "1 h p.i.", "result": "<0.5", "unit": "% ID/g"}, {"measurement": "Tissue uptake: Intestines", "setting": "1 h p.i.", "result": "<0.5", "unit": "% ID/g"}, {"measurement": "Tissue uptake: Kidneys", "setting": "1 h p.i.", "result": "8.4 ± 3.5", "unit": "% ID/g"}, {"measurement": "Tissue uptake: Liver", "setting": "1 h p.i.", "result": "<0.5", "unit": "% ID/g"}, {"measurement": "Tissue uptake: Lung", "setting": "1 h p.i.", "result": "<0.5", "unit": "% ID/g"}, {"measurement": "Tissue uptake: Muscle", "setting": "1 h p.i.", "result": "<0.5", "unit": "% ID/g"}, {"measurement": "Tissue uptake: Salivary glands", "setting": "1 h p.i.", "result": "<0.5", "unit": "% ID/g"}, {"measurement": "Tissue uptake: Spleen", "setting": "1 h p.i.", "result": "<0.5", "unit": "% ID/g"}, {"measurement": "Tissue uptake: Stomach", "setting": "1 h p.i.", "result": "<0.5", "unit": "% ID/g"}, {"measurement": "Tissue uptake: PC-3 flu tumor", "setting": "1 h p.i.", "result": "<0.5", "unit": "% ID/g"}, {"measurement": "Tissue uptake: PC-3 PIP tumor", "setting": "1 h p.i.", "result": "25 ± 3", "unit": "% ID/g"}, {"measurement": "PC-3 PIP tumor-to-background organ ratios: Tumor-to-blood", "setting": "1 h p.i.", "result": ">51^*"}, {"measurement": "PC-3 PIP tumor-to-background organ ratios: Tumor-to-liver", "setting": "1 h p.i.", "result": ">51^*"}, {"measurement": "PC-3 PIP tumor-to-background organ ratios: Tumor-to-kidney", "setting": "4 h p.i.", "result": "24 ± 3"}, {"measurement": "Tissue uptake: Blood", "setting": "4 h p.i.", "result": "<0.5", "unit": "% ID/g"}, {"measurement": "Tissue uptake: Bone", "setting": "4 h p.i.", "result": "<0.5", "unit": "% ID/g"}, {"measurement": "Tissue uptake: Heart", "setting": "4 h p.i.", "result": "<0.5", "unit": "% ID/g"}, {"measurement": "Tissue uptake: Intestines", "setting": "4 h p.i.", "result": "<0.5", "unit": "% ID/g"}, {"measurement": "Tissue uptake: Kidneys", "setting": "4 h p.i.", "result": "1.0 ± 0.2", "unit": "% ID/g"}, {"measurement": "Tissue uptake: Liver", "setting": "4 h p.i.", "result": "<0.5", "unit": "% ID/g"}, {"measurement": "Tissue uptake: Lung", "setting": "4 h p.i.", "result": "<0.5", "unit": "% ID/g"}, {"measurement": "Tissue uptake: Muscle", "setting": "4 h p.i.", "result": "<0.5", "unit": "% ID/g"}, {"measurement": "Tissue uptake: Salivary glands", "setting": "4 h p.i.", "result": "<0.5", "unit": "% ID/g"}, {"measurement": "Tissue uptake: Spleen", "setting": "4 h p.i.", "result": "<0.5", "unit": "% ID/g"}, {"measurement": "Tissue uptake: Stomach", "setting": "4 h p.i.", "result": "<0.5", "unit": "% ID/g"}, {"measurement": "Tissue uptake: PC-3 flu tumor", "setting": "4 h p.i.", "result": "<0.5", "unit": "% ID/g"}, {"measurement": "Tissue uptake: PC-3 PIP tumor", "setting": "4 h p.i.", "result": "23 ± 3", "unit": "% ID/g"}, {"measurement": "PC-3 PIP tumor-to-background organ ratios: Tumor-to-blood", "setting": "4 h p.i.", "result": ">46^*"}, {"measurement": "PC-3 PIP tumor-to-background organ ratios: Tumor-to-liver", "setting": "4 h p.i.", "result": ">46^*"}]}, {"smiles": "O=C([O-])CN1CCN(CC(=O)[O-])CCN(CC(=O)NC[C@H]2CC[C@H](C(=O)N[C@@H](Cc3ccc4ccccc4c3)C(=O)NCCCC[C@H](NC(=O)N[C@@H](CCC(=O)O)C(=O)O)C(=O)O)CC2)CCN(CC(=O)[O-])CC1.[153Eu+3]", "note": "[[^153Eu]Eu-PSMA-617]", "values": [{"measurement": "PC-3 PIP tumor-to-background organ ratios: Tumor-to-kidney", "setting": "1 h p.i.", "result": "3.3 ± 1.1"}, {"measurement": "Tissue uptake: Blood", "setting": "1 h p.i.", "result": "<0.5", "unit": "% ID/g"}, {"measurement": "Tissue uptake: Bone", "setting": "1 h p.i.", "result": "<0.5", "unit": "% ID/g"}, {"measurement": "Tissue uptake: Heart", "setting": "1 h p.i.", "result": "0.52 ± 0.42", "unit": "% ID/g"}, {"measurement": "Tissue uptake: Intestines", "setting": "1 h p.i.", "result": "<0.5", "unit": "% ID/g"}, {"measurement": "Tissue uptake: Kidneys", "setting": "1 h p.i.", "result": "8.1 ± 3.5", "unit": "% ID/g"}, {"measurement": "Tissue uptake: Liver", "setting": "1 h p.i.", "result": "<0.5", "unit": "% ID/g"}, {"measurement": "Tissue uptake: Lung", "setting": "1 h p.i.", "result": "<0.5", "unit": "% ID/g"}, {"measurement": "Tissue uptake: Muscle", "setting": "1 h p.i.", "result": "<0.5", "unit": "% ID/g"}, {"measurement": "Tissue uptake: Salivary glands", "setting": "1 h p.i.", "result": "<0.5", "unit": "% ID/g"}, {"measurement": "Tissue uptake: Spleen", "setting": "1 h p.i.", "result": "0.51 ± 0.17", "unit": "% ID/g"}, {"measurement": "Tissue uptake: Stomach", "setting": "1 h p.i.", "result": "<0.5", "unit": "% ID/g"}, {"measurement": "Tissue uptake: PC-3 flu tumor", "setting": "1 h p.i.", "result": "<0.5", "unit": "% ID/g"}, {"measurement": "Tissue uptake: PC-3 PIP tumor", "setting": "1 h p.i.", "result": "24 ± 3", "unit": "% ID/g"}, {"measurement": "PC-3 PIP tumor-to-background organ ratios: Tumor-to-blood", "setting": "1 h p.i.", "result": ">50^*"}, {"measurement": "PC-3 PIP tumor-to-background organ ratios: Tumor-to-liver", "setting": "1 h p.i.", "result": ">50^*"}, {"measurement": "PC-3 PIP tumor-to-background organ ratios: Tumor-to-kidney", "setting": "4 h p.i.", "result": "23 ± 3"}, {"measurement": "Tissue uptake: Blood", "setting": "4 h p.i.", "result": "<0.5", "unit": "% ID/g"}, {"measurement": "Tissue uptake: Bone", "setting": "4 h p.i.", "result": "<0.5", "unit": "% ID/g"}, {"measurement": "Tissue uptake: Heart", "setting": "4 h p.i.", "result": "<0.5", "unit": "% ID/g"}, {"measurement": "Tissue uptake: Intestines", "setting": "4 h p.i.", "result": "<0.5", "unit": "% ID/g"}, {"measurement": "Tissue uptake: Kidneys", "setting": "4 h p.i.", "result": "1.1 ± 0.3", "unit": "% ID/g"}, {"measurement": "Tissue uptake: Liver", "setting": "4 h p.i.", "result": "<0.5", "unit": "% ID/g"}, {"measurement": "Tissue uptake: Lung", "setting": "4 h p.i.", "result": "<0.5", "unit": "% ID/g"}, {"measurement": "Tissue uptake: Muscle", "setting": "4 h p.i.", "result": "<0.5", "unit": "% ID/g"}, {"measurement": "Tissue uptake: Salivary glands", "setting": "4 h p.i.", "result": "<0.5", "unit": "% ID/g"}, {"measurement": "Tissue uptake: Spleen", "setting": "4 h p.i.", "result": "<0.5", "unit": "% ID/g"}, {"measurement": "Tissue uptake: Stomach", "setting": "4 h p.i.", "result": "<0.5", "unit": "% ID/g"}, {"measurement": "Tissue uptake: PC-3 flu tumor", "setting": "4 h p.i.", "result": "<0.5", "unit": "% ID/g"}, {"measurement": "Tissue uptake: PC-3 PIP tumor", "setting": "4 h p.i.", "result": "23 ± 3", "unit": "% ID/g"}, {"measurement": "PC-3 PIP tumor-to-background organ ratios: Tumor-to-blood", "setting": "4 h p.i.", "result": ">46^*"}, {"measurement": "PC-3 PIP tumor-to-background organ ratios: Tumor-to-liver", "setting": "4 h p.i.", "result": ">46^*"}]}]}
